Assay results: paper PMC12627862, “Therapeutic targeting of endothelial calcium signaling accelerates the resolution of lung injury” (Signal Transduction and Targeted Therapy, 2025)
Starred links: 1 amine or outer side, 2 acyl side, 3 side chain; linkers in the order of their positions; H or OH if unused. Non-standard residues stand in square brackets, D forms with d. Residues, ends and D or L forms follow the SMILES beside them. No end group written: not given here. *: point of attachment. Leu(4,5-dehydro) = C=C(C)C[C@H](N)C(=O)O; Oic = O=C(O)[C@@H]1C[C@@H]2CCCC[C@@H]2N1; dVal(3-OH) = CC(C)(O)[C@@H](N)C(=O)O; tBuAla = CC(C)(C)C[C@H](N)C(=O)O; Myristoyl = CCCCCCCCCCCCCC(=O)*; X1 = O=C(CC(O)CN[*:1])[*:2]; 4Amb = NCc1ccc(C(=O)O)cc1

Assays:
[1] = Stability of selected EB3 inhibitors in human blood plasma; assay type: in vitro ADME; settings: human, plasma
Description: Supplementary Table 3. Stability of selected EB3 inhibitors in human blood plasma. The indicated inhibitors were incubated with human plasma at 37 °C and samples were taken at the indicated time points. Plasma proteins were precipitated with ice-cold perchloric acid (60%); the concentration of compounds was measured in supernatant using a liquid chromatography-tandem mass spectrometry (LC-MS/MS). See also Figures 1 and 2.

[2] = Lipophilicity of peptides, logP(oct/wat); assay type: physicochemical
Description: (§1) The solubilities of the synthesized compounds were determined experimentally (Supplementary Table 2). Most compounds were highly soluble at a 1 mM concentration; however, some compounds tended to form aggregates. These compounds were excluded from further studies. In addition, we experimentally determined the lipophilicity of each compound, logP(oct/wat)=log(soluteoct/solutewat ), which is the partition coefficient of a compound between aqueous (water) and lipophilic (octanol) phases (Supplementary Table 2).
Lipophilicity of peptides. Two separate solutions were obtained: an aqueous phosphate buffer with saturated n-octanol, and an n-octanol solution with saturated phosphate buffer. Peptides were then dissolved and diluted in the phosphate buffer. Different partitions were then made with different n-octanol to water ratio before shaking for an hour at room temperature. The aqueous phase and n-octanol were allowed to equilibrate, and each phase was extracted and analyzed for peptide concentrations. The ratio of peptide concentration in n-octanol to that in water is expressed as log(P).

[3] = Aggregation / solubility at 1 mM; assay type: physicochemical; settings: summary calls it solubility at 1mM
Description: as §1

[4] = target: EB3 interactions with IP3R3-GFP (Homo sapiens, UniProt Q9UPY8); test: Competitive binding: inhibition of EB3 interaction with IP3R3-GFP in vitro; assay type: biochemical; settings: for inhibition at 0.25 µM: 250 nM; for Competitive Binding at 250nM (% Inhibition): 0.25 µM
From the text: We tested the efficacy of twenty-three compounds in inhibiting EB3 interactions with IP3R3-GFP via an in vitro approach developed by us[12],[13]. […] Guided by NMR studies, we predicted the binding pose of 109 to EB3 via AutoDock Vina[13],[24],[25].

[5] = tested on: human primary microvascular lung endothelial cells (HLMVECs); test: Peptide uptake in endothelial cells; assay type: cell-based
Description: We next analyzed the cell-penetrating properties of the selected compounds, hereafter referred to as vascular therapeutics (VT). The rate of uptake of 5’6-FAM (fluorescein)-labeled compounds by human primary microvascular lung endothelial cells (HLMVECs) was determined via confocal fluorescence live-cell imaging. FAM-labeled Myr-EBIN[13] and fluorescein alone were used as positive and negative controls, respectively. The t½ uptake and maximal uptake were determined from changes in the integrated fluorescence intensity over a 30 min period (Fig. 2a and Supplementary Fig. 1a). […] Like Myr-EBIN, compounds VT-107, -108 and -109 presented the highest uptake rates of 92.5 ± 5.0%, 82.5 ± 2.8% and 94.7 ± 4.9%, respectively, whereas the linear compound VT-101 was taken up less efficiently, with an average uptake of 58.4 ± 2.7% (Fig. 2a). […] The t½ uptake, however, varied between the tested compounds (Fig. 2b). The stapled compounds presented the shortest t½ uptake, whereas the linear compounds presented the longest t½ (Fig. 2b).
Peptide uptake in endothelial cells. The rate of peptide uptake by primary human microvascular endothelial cells was measured using 5’6FAM (fluorescein)-labeled peptides and confocal fluorescence live-cell imaging, with fluorescein alone used as a negative control. Changes in intracellular fluorescence for each peptide were monitored over time, and saponin, a detergent, was added at the end of the experiment to induce full uptake of the tested peptides by endothelial cells. The fluorescence intensity inside the cells was tracked over time, and the half-time uptake (t1/2) and maximum uptake were calculated.

Chain of EB3 interactions with IP3R3-GFP (Q9UPY8 whole entry): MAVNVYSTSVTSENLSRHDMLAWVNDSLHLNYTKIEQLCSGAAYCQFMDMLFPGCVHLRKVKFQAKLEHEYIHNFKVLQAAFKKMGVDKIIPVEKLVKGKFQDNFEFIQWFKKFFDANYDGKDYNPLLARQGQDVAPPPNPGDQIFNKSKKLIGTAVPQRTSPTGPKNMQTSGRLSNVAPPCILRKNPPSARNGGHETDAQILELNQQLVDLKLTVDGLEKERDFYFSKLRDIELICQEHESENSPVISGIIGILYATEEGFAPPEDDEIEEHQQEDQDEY

Compound	remaining at 1.5 h [1] [%]	remaining at 20 h [1] [%]	logD [2]	Aggregation at 1mM [3]	inhibition at 0.25 µM [4] [%]	half-time uptake t1/2 [5] [min]	Log P (Octanol/Water) [2]	Competitive Binding at 250nM (% Inhibition) [4]	Competitive Binding at 250nM (% Inhibition) ([4]; listed as EBIN)
CCCCCCCCCCCCCC(=O)N[C@@H](Cc1ccccc1)C(=O)N[C@H](C(=O)N[C@@H](CCC(=O)O)C(=O)N[C@H](C(=O)N1CCC[C@H]1C(=O)N[C@H](C(=O)N[C@H](C(=O)O)[C@@H](C)CC)[C@@H](C)O)[C@@H](C)CC)[C@@H](C)O [Myr-EBIN, reference compound] (Myristoyl-FTEIPTI-OH)	105	53							
FTEIPTI [compound 000, (S)-4-((2S,3R)-2-((S)-2-amino-3-phenylpropanamido)-3-hydroxybutanamido)-5-(((2S,3S)-1-((S)-2-(((2S,3R)-1-(((1S,2S)-1-carboxy-2-methylbutyl)amino)-3-hydroxy-1-oxobutan-2-yl)carbamoyl)pyrrolidin-1-yl)-3-methyl-1-oxopentan-2-yl)amino)-5-oxopentanoic acid, reference compound]						2.50 ± 0.06	0.75	no inhibition	did not

Further lines, results first:

remaining at 1.5 h [1] [%]	remaining at 20 h [1] [%]	logD [2]	Aggregation at 1mM [3]	inhibition at 0.25 µM [4] [%]	half-time uptake t1/2 [5] [min]	Log P (Octanol/Water) [2]	Competitive Binding at 250nM (% Inhibition) [4]	Competitive Binding at 250nM (% Inhibition) ([4]; listed as EBIN)	Compound
		0.44	weak signal	12					CC(C)(C)C[C@H](NC(=O)CC(O)CNC(=O)[C@@H]1C[C@@H]2CCCC[C@@H]2N1C(=O)[C@H](CC(C)(C)C)NC(=O)c1ccc(CNC(=O)[C@H](N)C(C)(C)O)cc1)C(=O)O (stereo partly drawn) [compound 103, (2S)-2-(4-((2S,3aS,7aS)-1-((S)-2-(4-(((R)-2-amino-3-hydroxy-3-methylbutanamido)methyl)benzamido)-4,4-dimethylpentanoyl)octahydro-1H-indole-2-carboxamido)-3-hydroxybutanamido)-4,4-dimethylpentanoic acid] (H-[dVal(3-OH)][4Amb][tBuAla][Oic][X1][tBuAla]-OH)
		-0.3	weak signal	40	8.56 ± 0.48				C=C(C)C[C@H](NC(=O)c1ccc(CNC(=O)CC(O)CN)cc1)C(=O)N1[C@H](C(=O)NCC(O)CC(=O)N[C@@H](CC(C)(C)C)C(=O)O)C[C@@H]2CCCC[C@@H]21 (stereo partly drawn) [compound 104, (2S)-2-(4-((2S,3aS,7aS)-1-((2S)-2-(4-((4-amino-3-hydroxybutanamido)methyl)benzamido)-4-methylpent-4-enoyl)octahydro-1H-indole-2-carboxamido)-3-hydroxybutanamido)-4,4-dimethylpentanoic acid.]
		-0.37	weak signal	70					C=C(C)C[C@H](NC(=O)CC(O)CNC(=O)[C@@H]1C[C@@H]2CCCC[C@@H]2N1C(=O)[C@H](CC(=C)C)NC(=O)c1ccc(CNC(=O)[C@H](NC(=O)[C@H](N)Cc2ccccc2)C(C)(C)O)cc1)C(=O)O (stereo partly drawn) [compound 105, (2S)-2-(4-((2S,3aS,7aS)-1-((S)-2-(4-(((R)-2-((R)-2-amino-3-phenylpropanamido)-3-hydroxy-3-methylbutanamido)methyl)benzamido)-4-methylpent-4-enoyl)octahydro-1H-indole-2-carboxamido)-3-hydroxybutanamido)-4-methylpent-4-enoic acid.] (H-[dF][dVal(3-OH)][4Amb][Leu(4,5-dehydro)][Oic][X1][Leu(4,5-dehydro)]-OH)
